Reference: patent US20100292222A1, “CHEMICAL COMPOUNDS 751” (ASTRAZENECA AB, priority 2009, published 2010)

Target: T1, Androgen Receptor (AR) (Homo sapiens, UniProt P10275, T878A)
T1 construct: cell based immuno-fluorescence assay using the LNCaP prostate epithelial cell line; host or cells: LNCaP clone FGC prostate carcinoma cells
T1 sequence (P10275 1-920 T878A): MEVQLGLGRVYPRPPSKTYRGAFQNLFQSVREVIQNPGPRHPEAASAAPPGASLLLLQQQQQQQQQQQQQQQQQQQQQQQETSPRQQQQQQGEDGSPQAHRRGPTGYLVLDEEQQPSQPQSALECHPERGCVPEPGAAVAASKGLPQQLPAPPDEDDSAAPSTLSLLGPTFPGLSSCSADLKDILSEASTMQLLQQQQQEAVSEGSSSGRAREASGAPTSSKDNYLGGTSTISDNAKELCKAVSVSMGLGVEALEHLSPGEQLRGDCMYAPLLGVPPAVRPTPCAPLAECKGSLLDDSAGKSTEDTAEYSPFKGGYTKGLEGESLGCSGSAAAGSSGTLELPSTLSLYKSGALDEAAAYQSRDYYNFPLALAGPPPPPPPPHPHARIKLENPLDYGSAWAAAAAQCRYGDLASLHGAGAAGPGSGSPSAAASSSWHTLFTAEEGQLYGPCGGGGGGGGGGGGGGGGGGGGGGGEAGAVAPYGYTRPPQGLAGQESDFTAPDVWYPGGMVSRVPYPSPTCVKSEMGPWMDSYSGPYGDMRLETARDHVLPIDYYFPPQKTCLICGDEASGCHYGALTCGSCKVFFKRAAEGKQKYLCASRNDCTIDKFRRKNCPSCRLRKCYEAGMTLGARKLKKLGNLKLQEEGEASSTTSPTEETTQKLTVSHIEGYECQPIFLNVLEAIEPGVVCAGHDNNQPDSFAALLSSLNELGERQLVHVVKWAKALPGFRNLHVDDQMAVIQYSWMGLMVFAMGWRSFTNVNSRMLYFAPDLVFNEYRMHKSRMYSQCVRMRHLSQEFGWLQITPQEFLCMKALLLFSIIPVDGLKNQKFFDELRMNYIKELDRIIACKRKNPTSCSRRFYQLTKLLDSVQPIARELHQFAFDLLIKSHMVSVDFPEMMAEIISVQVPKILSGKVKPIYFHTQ
Assay: LNCaP Androgen Receptor Down-Regulation Cell Assay
Assay type: cell-based
Settings: LNCaP prostate carcinoma cell line; 20-22 hours incubation; immunofluorescence; 50% reduction of the AR signal
Procedure: The ability of compounds to reduce Androgen Receptor (AR) numbers was assessed in a cell based immuno-fluorescence assay using the LNCaP prostate epithelial cell line.
This immunofluorescence end point assay measures the ability of a test compound to down-regulate and reduce measured levels of the AR in the LNCaP prostate carcinoma cell line (LNCaP clone FGC (CRL-1740) obtained from the American Type Culture Collection (ATCC)).
LNCaP cells were cultured in Growth Medium (phenol red free Roswell Park Memorial Institute (RPMI) 1640 (Invitrogen Code no. 11835-063) containing 2 mM L-Glutamine (Invitrogen Code no. 25030-024) and 1% (v/v) Penicillin/Streptomycin (10000 units/ml Penicillin and 10000 μg/ml of Streptomycin utilising penicillin G (sodium salt) and streptomycin sulphate: prepared in normal saline, Invitrogen Code no. 15140122) and 10% (v/v) foetal bovine serum (FBS)) in a 5% CO2 air incubator at 37° C. Cells for assay were harvested from T175 stock flasks by washing once in PBS (phosphate buffered saline, pH 7.4) (Invitrogen Code no. 14190-094) and harvested using 5 mls of 1× Trypsin/ethylaminediaminetetraacetic acid (EDTA) (10× Trypsin-EDTA, 5.0 g/L Trypsin, 2.0 g/L of EDTA•4Na and 8.5 g/L of NaCl, without Phenol Red, Invitrogen Code no. 15400-054) diluted in PBS solution. A 5 ml volume of Growth Medium was added to each flask (as above except that 5% (v/v) charcoal stripped FBS (HyClone Code no. SH30068.03) was included instead of 10% (v/v) FBS). Cells were syringed at least twice using a sterile 18G×1.5″ (1.2×40 mm) broad gauge needle and cell density was measured using a haemocytometer. Cells were further diluted in Growth Medium plus 5% (v/v) charcoal stripped FBS and seeded at a density of 6.5×10^3 cells per well (in 90 ul) into transparent, black, tissue culture treated 96 well plates (Packard, No. 6005182).
Test data reported herein was generated using two different compounds preparation and dosing methods. In method (1) a 10 mM compound stock solution in 100% (v/v) DMSO was serially diluted in 4-fold steps in 100% (v/v) DMSO using a Thermo Scientific Matrix SerialMate. The diluted compounds were then further diluted 1 in 30 in assay media using a Thermo Scientific Matrix PlateMate and a 10 μl aliquot of this dilution was dosed to cells manually using a multi-channel pipette. In method (2) starting with a 10 mM compound stock solution, the Labcyte Echo 550 was used to generate a compound concentration response set diluted in 30 μl of assay media. The Echo 550 is a liquid handler that uses acoustic technology to perform direct microplate-to-microplate transfers of DMSO compound solutions. The system can be programmed to transfer volumes as low as […] in multiple increments between microplates and in so doing generates a serial dilution of compound which is then back-filled to normalise the DMSO is concentration across the dilution range. A 10 μl volume of diluted compound is then dosed to cells using a Thermo Scientific Matrix PlateMate.
Plates were incubated overnight at 37° C., 5% CO2. Wells were then dosed with compound prepared by one of the 2 methods above and further incubated for 20-22 hours at 37° C., 5% CO2. Plates were fixed by the addition of 20 μl of 10% (v/v) formaldehyde solution (in PBS) to each well (final formaldehyde conc.=1.67% (v/v)) and left at room temperature for 10 mins. This fixative solution was removed and cells were washed with 250 μl of PBS/0.05% (v/v) Tween 20 (PBST) using an automated plate washer. This process was then repeated twice more.
Immunostaining was performed at room temperature. Cells were permeabilised by the addition of 35 μl of PBS containing 0.5% Tween 20 and incubated for 1 hour at room temperature. Permeabilisation solution was removed and cells were washed with 250 μl of PBST using an automated plate washer. This process was then repeated twice more. […]

Row | IC50 | Compound
1 | 240 nM | CCN1CCN(CCCOc2ccc(C3CCN(c4ccc5nnc(C(F)(F)F)n5n4)CC3)cc2)CC1=O [Example 15, 1-ethyl-4-[3-(4-{1-[3-(trifluoromethyl)[1,2,4]triazolo[4,3-b]pyridazin-6-yl]piperidin-4-yl}phenoxy)propyl]piperazin-2-one]
2 | 610 nM | CC(C)N1CCN(CCCOc2ccc(C3CCN(c4ccc5nnc(C(F)(F)F)n5n4)CC3)cc2)CC1=O [Example 16, 1-(1-methylethyl)-4-[3-(4-{1-[3-(trifluoromethyl)[1,2,4]triazolo[4,3-b]pyridazin-6-yl]piperidin-4-yl}phenoxy)propyl]piperazin-2-one]
3 | 530 nM | COCCN1CCN(CCCOc2ccc(C3CCN(c4ccc5nnc(C(F)(F)F)n5n4)CC3)cc2)CC1=O [Example 17, 1-(2-methoxyethyl)-4-[3-(4-{1-[3-(trifluoromethyl)[1,2,4]triazolo[4,3-b]pyridazin-6-yl]piperidin-4-yl}phenoxy)propyl]piperazin-2-one]
4 | 310 nM | CCN1CCN(CCOc2ccc(C3CCN(c4ccc5nnc(C(F)(F)F)n5n4)CC3)cc2)CC1=O [Example 18, 1-ethyl-4-[2-(4-{1-[3-(trifluoromethyl)[1,2,4]triazolo[4,3-b]pyridazin-6-yl]piperidin-4-yl}phenoxy)ethyl]piperazin-2-one]
5 | 710 nM | CC(C)N1CCN(CCOc2ccc(C3CCN(c4ccc5nnc(C(F)(F)F)n5n4)CC3)cc2)CC1=O [Example 19, 1-(1-methylethyl)-4-[2-(4-{1-[3-(trifluoromethyl)[1,2,4]triazolo[4,3-b]pyridazin-6-yl]piperidin-4-yl}phenoxy)ethyl]piperazin-2-one]
6 | 570 nM | COCCN1CCN(CCOc2ccc(C3CCN(c4ccc5nnc(C(F)(F)F)n5n4)CC3)cc2)CC1=O [Example 20, 1-(2-methoxyethyl)-4-[2-(4-{1-[3-(trifluoromethyl)[1,2,4]triazolo[4,3-b]pyridazin-6-yl]piperidin-4-yl}phenoxy)ethyl]piperazin-2-one]
7 | 1800 nM | O=C(CO)N1CCN(CCOc2ccc(C3CCN(c4ccc5nnc(C(F)(F)F)n5n4)CC3)cc2)CC1 [Example 21, 2-oxo-2-{4-[2-(4-{1-[3-(trifluoromethyl)[1,2,4]triazolo[4,3-b]pyridazin-6-yl]piperidin-4-yl}phenoxy)ethyl]piperazin-1-yl]ethanol]
8 | 1500 nM | COCC(=O)N1CCN(CCOc2ccc(C3CCN(c4ccc5nnc(C(F)(F)F)n5n4)CC3)cc2)CC1 [Example 22, 6-[4-(4-{2-[4-(methoxyacetyl)piperazin-1-yl]ethoxy}phenyl)piperidin-1-yl]-3-(trifluoromethyl)[1,2,4]triazolo[4,3-b]pyridazine]
9 | 900 nM | C[C@H](O)C(=O)N1CCN(CCOc2ccc(C3CCN(c4ccc5nnc(C(F)(F)F)n5n4)CC3)cc2)CC1 [Example 23, (2S)-1-oxo-1-{4-[2-(4-{1-[3-(trifluoromethyl)[1,2,4]triazolo[4,3-b]pyridazin-6-yl]piperidin-4-yl}phenoxy)ethyl]piperazin-1-yl}propan-2-ol]
10 | 1700 nM | C[C@@H](O)C(=O)N1CCN(CCOc2ccc(C3CCN(c4ccc5nnc(C(F)(F)F)n5n4)CC3)cc2)CC1 [Example 24, (2R)-1-oxo-1-{4-[2-(4-{1-[3-(trifluoromethyl)[1,2,4]triazolo[4,3-b]pyridazin-6-yl]piperidin-4-yl}phenoxy)ethyl]piperazin-1-yl}propan-2-ol]
11 | 1200 nM | CO[C@@H](C)C(=O)N1CCN(CCOc2ccc(C3CCN(c4ccc5nnc(C(F)(F)F)n5n4)CC3)cc2)CC1 [Example 25, 6-{4-[4-(2-{4-[(2S)-2-methoxypropanoyl]piperazin-1-yl}ethoxy)phenyl]piperidin-1-yl}-3-(trifluoromethyl)[1,2,4]triazolo[4,3-b]pyridazine]
12 | 160 nM | CC(=O)N1CCN(C[C@@H](C)Oc2ccc(C3CCN(c4ccc5nnc(C(F)(F)F)n5n4)CC3)cc2)CC1 [Example 26, 6-(4-{4-[(1R)-2-(4-acetylpiperazin-1-yl)-1-methylethoxy]phenyl}piperidin-1-yl)-3-(trifluoromethyl)[1,2,4]triazolo[4,3-b]pyridazine]
13 | 880 nM | CC(=O)N1CCN(C[C@H](C)Oc2ccc(C3CCN(c4ccc5nnc(C(F)(F)F)n5n4)CC3)cc2)CC1 [Example 27, 6-(4-{4-[(1S)-2-(4-acetylpiperazin-1-yl)-1-methylethoxy]phenyl}piperidin-1-yl)-3-(trifluoromethyl) [1,2,4]triazolo[4,3-b]pyridazine]
14 | 400 nM | COC[C@H](CN1CCN(C(C)=O)CC1)Oc1ccc(C2CCN(c3ccc4nnc(C(F)(F)F)n4n3)CC2)cc1 [Example 28, 6-(4-{4-[(1S)-2-(4-acetylpiperazin-1-yl)-1-(methoxymethyl)ethoxy]phenyl}piperidin-1-yl)-3-(trifluoromethyl)[1,2,4]triazolo[4,3-b]pyridazine]
15 | 490 nM | COC[C@@H](CN1CCN(C(C)=O)CC1)Oc1ccc(C2CCN(c3ccc4nnc(C(F)(F)F)n4n3)CC2)cc1 [Example 29, 6-(4-{4-[(1R)-2-(4-acetylpiperazin-1-yl)-1-(methoxymethyl)ethoxy]phenyl}piperidin-1-yl)-3-(trifluoromethyl)[1,2,4]triazolo[4,3-b]pyridazine]
16 | 210 nM | CC(=O)N1CCN(CCOc2ccc(C3(O)CCN(c4ccc5nnc(C(F)(F)F)n5n4)CC3)c(C)c2)CC1 [Example 30, 4-{4-[2-(4-acetylpiperazin-1-yl)ethoxy]-2-methylphenyl}-1-[3-(trifluoromethyl)[1,2,4]-triazolo[4,3-b]pyridazin-6-yl]piperidin-4-ol]
17 | 260 nM | Cc1cc(OCCN2CCN(C)C(=O)C2)ccc1C1(O)CCN(c2ccc3nnc(C(F)(F)F)n3n2)CC1 [Example 31, 4-[2-(4-{4-hydroxy-1-[3-(trifluoromethyl)[1,2,4]-triazolo[4,3-b]pyridazin-6-yl]piperidin-4-yl}-3-methylphenoxy)ethyl]-1-methylpiperazin-2-one]
